{"source": "paper PMC3961306", "about": "“Comparison of the Cancer Gene Targeting and Biochemical Selectivities of All Targeted Kinase Inhibitors Approved for Clinical Use” (PLoS ONE, 2014)", "key": {"[1]": {"system": "forty-four human cancer cell lines", "test": "Cell proliferation assay (ATPlite, 72 hours) in the 44 cell line Oncolines panel", "type": "cell-based", "details": "Homo sapiens"}, "[2]": {"target": "panel of more than 300 wild-type and mutant kinases (313 kinase panel) (Homo sapiens, UniProt P00519, E255K)", "sequence (P00519 whole entry E255K)": "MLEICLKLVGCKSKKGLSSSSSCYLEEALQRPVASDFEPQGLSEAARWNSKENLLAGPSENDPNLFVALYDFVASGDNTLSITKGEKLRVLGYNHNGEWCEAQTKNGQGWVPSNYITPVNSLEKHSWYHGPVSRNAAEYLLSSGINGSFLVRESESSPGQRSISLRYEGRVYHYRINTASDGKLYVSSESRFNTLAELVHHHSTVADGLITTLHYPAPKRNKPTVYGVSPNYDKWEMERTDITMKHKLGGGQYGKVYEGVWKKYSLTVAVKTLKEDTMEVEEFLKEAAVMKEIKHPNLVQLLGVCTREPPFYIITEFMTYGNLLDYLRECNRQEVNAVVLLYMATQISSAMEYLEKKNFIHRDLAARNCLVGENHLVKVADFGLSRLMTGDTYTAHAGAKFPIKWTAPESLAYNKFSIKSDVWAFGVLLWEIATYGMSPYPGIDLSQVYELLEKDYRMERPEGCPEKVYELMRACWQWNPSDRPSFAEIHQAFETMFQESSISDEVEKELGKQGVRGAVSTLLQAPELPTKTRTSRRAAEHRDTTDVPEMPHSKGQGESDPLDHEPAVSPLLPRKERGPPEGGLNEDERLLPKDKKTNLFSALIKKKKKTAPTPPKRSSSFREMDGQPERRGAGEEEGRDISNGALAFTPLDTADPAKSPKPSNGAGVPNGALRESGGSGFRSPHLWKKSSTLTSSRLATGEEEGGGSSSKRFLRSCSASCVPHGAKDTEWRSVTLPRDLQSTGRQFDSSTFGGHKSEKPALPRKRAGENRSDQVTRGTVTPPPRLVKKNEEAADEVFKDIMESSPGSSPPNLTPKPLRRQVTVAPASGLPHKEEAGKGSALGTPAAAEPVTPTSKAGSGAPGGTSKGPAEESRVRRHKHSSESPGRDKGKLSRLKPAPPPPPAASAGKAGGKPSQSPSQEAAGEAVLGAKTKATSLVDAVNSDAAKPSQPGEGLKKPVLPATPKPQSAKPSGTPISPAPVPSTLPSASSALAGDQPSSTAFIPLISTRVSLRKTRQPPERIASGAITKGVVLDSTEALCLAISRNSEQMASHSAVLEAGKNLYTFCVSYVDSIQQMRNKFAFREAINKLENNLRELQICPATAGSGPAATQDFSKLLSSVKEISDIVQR", "test": "Kinase profiling in a biochemical assay panel (mobility shift assays and ELISA), %-inhibition at 1 μM; selectivity entropy", "details": "kinase ABL(E255K); 1 μM compound"}, "[3]": {"target": "panel of more than 300 wild-type and mutant kinases (313 kinase panel) (Homo sapiens, UniProt P04049)", "sequence (P04049 whole entry, change not shown)": "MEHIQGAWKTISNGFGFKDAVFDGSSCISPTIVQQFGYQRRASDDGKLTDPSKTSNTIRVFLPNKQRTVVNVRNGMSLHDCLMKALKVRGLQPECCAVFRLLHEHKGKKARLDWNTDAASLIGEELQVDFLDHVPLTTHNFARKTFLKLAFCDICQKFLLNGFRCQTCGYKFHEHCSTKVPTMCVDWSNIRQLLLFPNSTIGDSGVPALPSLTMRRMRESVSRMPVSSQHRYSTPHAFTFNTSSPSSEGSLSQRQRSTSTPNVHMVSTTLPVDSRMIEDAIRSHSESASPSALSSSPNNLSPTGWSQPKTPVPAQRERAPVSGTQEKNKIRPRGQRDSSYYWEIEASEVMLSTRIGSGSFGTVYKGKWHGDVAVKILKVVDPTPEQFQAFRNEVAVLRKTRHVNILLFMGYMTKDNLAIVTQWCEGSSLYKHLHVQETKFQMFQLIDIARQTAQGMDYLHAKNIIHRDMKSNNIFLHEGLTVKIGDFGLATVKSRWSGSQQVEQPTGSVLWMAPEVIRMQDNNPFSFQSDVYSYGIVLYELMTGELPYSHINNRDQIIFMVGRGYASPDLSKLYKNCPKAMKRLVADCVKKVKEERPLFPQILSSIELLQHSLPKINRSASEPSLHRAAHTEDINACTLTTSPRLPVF", "test": "Kinase profiling in a biochemical assay panel (mobility shift assays and ELISA), %-inhibition at 1 μM; selectivity entropy", "details": "kinase RAF1; 1 μM"}, "[4]": {"target": "panel of more than 300 wild-type and mutant kinases (313 kinase panel) (Homo sapiens, UniProt P10721, T670I)", "sequence (P10721 26-976 T670I)": "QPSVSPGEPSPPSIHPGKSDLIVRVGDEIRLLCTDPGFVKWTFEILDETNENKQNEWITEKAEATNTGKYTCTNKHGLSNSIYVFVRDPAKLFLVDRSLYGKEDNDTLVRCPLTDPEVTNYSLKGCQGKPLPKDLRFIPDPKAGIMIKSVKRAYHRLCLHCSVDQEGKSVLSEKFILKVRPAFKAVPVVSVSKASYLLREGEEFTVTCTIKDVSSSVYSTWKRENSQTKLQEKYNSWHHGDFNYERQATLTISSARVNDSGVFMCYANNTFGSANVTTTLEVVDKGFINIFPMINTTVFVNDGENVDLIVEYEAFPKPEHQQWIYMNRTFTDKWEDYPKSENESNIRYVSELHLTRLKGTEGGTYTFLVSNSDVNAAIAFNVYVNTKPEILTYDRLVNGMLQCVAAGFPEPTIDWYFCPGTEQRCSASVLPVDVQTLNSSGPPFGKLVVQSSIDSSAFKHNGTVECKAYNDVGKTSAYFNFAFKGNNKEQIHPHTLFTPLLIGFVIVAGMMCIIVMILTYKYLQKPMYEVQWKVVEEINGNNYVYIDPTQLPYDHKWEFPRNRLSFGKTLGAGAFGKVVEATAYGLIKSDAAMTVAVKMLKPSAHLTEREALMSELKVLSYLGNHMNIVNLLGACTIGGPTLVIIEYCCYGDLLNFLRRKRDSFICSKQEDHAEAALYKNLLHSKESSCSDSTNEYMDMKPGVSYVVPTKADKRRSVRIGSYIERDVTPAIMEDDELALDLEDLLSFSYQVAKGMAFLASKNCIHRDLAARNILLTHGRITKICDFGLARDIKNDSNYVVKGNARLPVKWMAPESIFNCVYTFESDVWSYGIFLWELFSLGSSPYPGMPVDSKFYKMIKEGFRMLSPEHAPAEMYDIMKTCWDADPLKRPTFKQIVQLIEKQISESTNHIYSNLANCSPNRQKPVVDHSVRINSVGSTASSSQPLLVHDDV", "test": "Kinase profiling in a biochemical assay panel (mobility shift assays and ELISA), %-inhibition at 1 μM; selectivity entropy", "details": "kinase KIT(T670I); compound at 1 μM"}, "[5]": {"target": "panel of more than 300 wild-type and mutant kinases (313 kinase panel) (Homo sapiens, UniProt P22612)", "test": "Kinase profiling in a biochemical assay panel (mobility shift assays and ELISA), %-inhibition at 1 μM; selectivity entropy", "details": "kinase PKACγ; 1 μM"}, "[6]": {"target": "panel of more than 300 wild-type and mutant kinases (313 kinase panel) (Homo sapiens, UniProt Q04912)", "test": "Kinase profiling in a biochemical assay panel (mobility shift assays and ELISA), %-inhibition at 1 μM; selectivity entropy", "details": "kinase RON; 1 μM"}, "[7]": {"target": "panel of more than 300 wild-type and mutant kinases (313 kinase panel) (Homo sapiens, UniProt Q8N4C8)", "sequence (Q8N4C8 whole entry, change not shown)": "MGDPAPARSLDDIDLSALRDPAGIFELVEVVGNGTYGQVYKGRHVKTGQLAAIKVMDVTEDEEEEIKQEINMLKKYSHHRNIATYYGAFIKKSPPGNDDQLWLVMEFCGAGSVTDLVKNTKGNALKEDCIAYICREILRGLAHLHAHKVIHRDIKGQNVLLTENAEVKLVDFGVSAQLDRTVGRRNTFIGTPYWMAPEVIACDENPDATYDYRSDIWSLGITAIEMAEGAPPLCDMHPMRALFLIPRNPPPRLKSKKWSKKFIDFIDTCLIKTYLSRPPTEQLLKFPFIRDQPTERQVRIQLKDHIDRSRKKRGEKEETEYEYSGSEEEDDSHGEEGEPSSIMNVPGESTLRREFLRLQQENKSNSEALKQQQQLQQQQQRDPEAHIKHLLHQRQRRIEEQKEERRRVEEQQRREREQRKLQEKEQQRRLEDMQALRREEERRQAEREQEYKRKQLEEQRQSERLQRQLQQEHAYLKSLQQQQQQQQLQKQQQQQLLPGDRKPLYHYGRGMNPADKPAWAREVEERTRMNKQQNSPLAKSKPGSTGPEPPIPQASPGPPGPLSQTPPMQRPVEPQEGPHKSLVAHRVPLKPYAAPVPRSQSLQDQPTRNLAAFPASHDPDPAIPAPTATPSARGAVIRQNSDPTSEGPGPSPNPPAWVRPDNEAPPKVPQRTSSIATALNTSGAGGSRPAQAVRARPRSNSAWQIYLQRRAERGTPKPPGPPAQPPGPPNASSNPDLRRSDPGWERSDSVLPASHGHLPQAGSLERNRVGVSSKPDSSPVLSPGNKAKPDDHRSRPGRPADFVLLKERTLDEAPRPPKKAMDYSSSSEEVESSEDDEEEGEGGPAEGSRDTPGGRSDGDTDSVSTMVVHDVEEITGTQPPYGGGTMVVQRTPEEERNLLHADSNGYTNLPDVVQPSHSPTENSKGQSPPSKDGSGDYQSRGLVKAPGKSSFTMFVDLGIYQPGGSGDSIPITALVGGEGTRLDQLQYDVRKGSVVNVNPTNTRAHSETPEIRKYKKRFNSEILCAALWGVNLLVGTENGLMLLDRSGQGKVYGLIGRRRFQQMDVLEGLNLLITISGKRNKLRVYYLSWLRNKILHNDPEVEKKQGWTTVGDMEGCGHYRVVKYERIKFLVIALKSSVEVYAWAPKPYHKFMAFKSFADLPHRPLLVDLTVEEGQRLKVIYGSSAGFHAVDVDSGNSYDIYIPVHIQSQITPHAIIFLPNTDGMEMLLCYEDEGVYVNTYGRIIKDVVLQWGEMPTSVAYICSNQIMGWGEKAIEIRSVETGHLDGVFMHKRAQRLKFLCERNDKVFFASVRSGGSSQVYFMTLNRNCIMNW", "test": "Kinase profiling in a biochemical assay panel (mobility shift assays and ELISA), %-inhibition at 1 μM; selectivity entropy", "details": "kinase MINK; 1 μM"}, "[8]": {"target": "panel of more than 300 wild-type and mutant kinases (313 kinase panel) (Homo sapiens, UniProt Q9HC98)", "test": "Kinase profiling in a biochemical assay panel (mobility shift assays and ELISA), %-inhibition at 1 μM; selectivity entropy", "details": "kinase NEK6; 1 μM"}, "[9]": {"target": "T1, panel of more than 300 wild-type and mutant kinases (313 kinase panel) (Homo sapiens, UniProt Q9UL54)", "T1 sequence (Q9UL54 1-1235)": "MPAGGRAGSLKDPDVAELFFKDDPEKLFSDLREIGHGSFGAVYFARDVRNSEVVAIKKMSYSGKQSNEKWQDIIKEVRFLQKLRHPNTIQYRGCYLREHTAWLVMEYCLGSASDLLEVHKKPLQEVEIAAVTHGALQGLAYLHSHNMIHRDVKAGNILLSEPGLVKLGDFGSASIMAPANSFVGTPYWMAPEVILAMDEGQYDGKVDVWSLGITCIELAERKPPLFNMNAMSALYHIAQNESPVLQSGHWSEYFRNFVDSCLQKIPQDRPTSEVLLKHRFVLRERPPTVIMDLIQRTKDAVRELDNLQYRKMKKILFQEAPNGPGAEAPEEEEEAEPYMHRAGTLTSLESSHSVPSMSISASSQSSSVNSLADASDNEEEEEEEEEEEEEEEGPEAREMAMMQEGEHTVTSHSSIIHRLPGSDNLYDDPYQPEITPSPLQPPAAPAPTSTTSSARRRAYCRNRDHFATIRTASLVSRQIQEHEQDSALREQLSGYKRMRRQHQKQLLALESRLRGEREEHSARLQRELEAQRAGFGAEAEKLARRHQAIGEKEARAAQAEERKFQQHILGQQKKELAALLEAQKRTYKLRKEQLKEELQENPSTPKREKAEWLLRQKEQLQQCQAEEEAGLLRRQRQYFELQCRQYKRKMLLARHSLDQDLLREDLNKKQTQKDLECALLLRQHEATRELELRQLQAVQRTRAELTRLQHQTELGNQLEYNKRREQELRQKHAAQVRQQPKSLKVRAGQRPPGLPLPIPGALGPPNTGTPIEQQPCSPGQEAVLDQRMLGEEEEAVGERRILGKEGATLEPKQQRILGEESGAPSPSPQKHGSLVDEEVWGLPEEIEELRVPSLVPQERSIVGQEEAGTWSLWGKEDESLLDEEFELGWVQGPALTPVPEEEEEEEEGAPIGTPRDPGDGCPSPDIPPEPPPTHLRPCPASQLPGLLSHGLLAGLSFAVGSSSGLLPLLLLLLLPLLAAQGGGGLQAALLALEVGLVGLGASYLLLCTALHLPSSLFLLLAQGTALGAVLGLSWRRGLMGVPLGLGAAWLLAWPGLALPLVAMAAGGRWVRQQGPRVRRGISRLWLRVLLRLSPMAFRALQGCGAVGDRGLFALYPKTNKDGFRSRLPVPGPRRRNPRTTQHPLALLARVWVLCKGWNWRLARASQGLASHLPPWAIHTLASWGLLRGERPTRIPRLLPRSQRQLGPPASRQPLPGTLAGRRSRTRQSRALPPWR", "test": "Kinase profiling in a biochemical assay panel (mobility shift assays and ELISA), %-inhibition at 1 μM; selectivity entropy", "details": "kinase TAOK2; 1 μM"}}, "note": "Where two headings read alike, the source gives them in different places."}
{"compound": "CNC(=O)c1cc(Oc2ccc(NC(=O)Nc3ccc(Cl)c(C(F)(F)F)c3)c(F)c2)ccn1", "note": "[regorafenib]", "values": [{"measurement": "IC50", "setting": "[1]; A 172, read-out: cell panel IC50, A-172", "result": 3.95, "unit": "µM"}, {"measurement": "IC50", "setting": "[1]; A204, cell line A-204, read-out: cell panel IC50, A-204", "result": 3.01, "unit": "µM"}, {"measurement": "IC50", "setting": "[1]; A498, read-out: cell panel IC50, A-498", "result": 3.41, "unit": "µM"}, {"measurement": "IC50", "setting": "[1]; A549, read-out: cell panel IC50, A-549", "result": 2.92, "unit": "µM"}, {"measurement": "IC50", "setting": "[1]; A-375, cell line A375, read-out: cell panel IC50, A375", "result": 3.56, "unit": "µM"}, {"measurement": "IC50", "setting": "[1]; A-427, read-out: cell panel IC50, A-427", "result": 8.73, "unit": "µM"}, {"measurement": "IC50", "setting": "[1]; AU565, read-out: cell panel IC50, AU-565", "result": 0.687, "unit": "µM"}, {"measurement": "IC50", "setting": "[1]; BT-549, read-out: cell panel IC50, BT-549", "result": 16.6, "unit": "µM"}, {"measurement": "IC50", "setting": "[1]; HCT-116, read-out: cell panel IC50, HCT-116", "result": 3.51, "unit": "µM"}, {"measurement": "IC50", "setting": "[1]; K562, read-out: cell panel IC50, K-562", "result": 4.17, "unit": "µM"}, {"measurement": "IC50", "setting": "[1]; LS174T, read-out: cell panel IC50, LS 174T", "result": 3.76, "unit": "µM"}, {"measurement": "IC50", "setting": "[1]; SHP77, cell line SHP-77, read-out: cell panel IC50, SHP-77", "result": "> 31.6", "unit": "µM"}, {"measurement": "IC50", "setting": "[1]; SW-620, cell line SW620, read-out: cell panel IC50, SW620", "result": 9.66, "unit": "µM"}, {"measurement": "IC50", "setting": "[1]; U2OS, cell line U-2 OS, read-out: cell panel IC50, U-2 OS", "result": 3.08, "unit": "µM"}, {"measurement": "IC50", "setting": "[1]; cell line J82, read-out: cell panel IC50, J82", "result": 3.27, "unit": "µM"}, {"measurement": "IC50", "setting": "[1]; cell line PA-1, read-out: cell panel IC50, PA-1", "result": 2.96, "unit": "µM"}, {"measurement": "IC50", "setting": "[1]; cell line SJCRH30, read-out: cell panel IC50, SJCRH30", "result": 10.7, "unit": "µM"}, {"measurement": "IC50", "setting": "[1]; cell line SR, read-out: cell panel IC50, SR", "result": 3.1, "unit": "µM"}, {"measurement": "IC50", "setting": "[1]; U-87 MG cell line, ATPlite, 72 hours, read-out: IC50 in cell proliferation assay (table S5 cellpanel data)", "result": 11.8, "unit": "µM"}, {"measurement": "IC50", "setting": "[1]; cell line 769-P, read-out: cell panel IC50, 769-P", "result": 2.9, "unit": "µM"}, {"measurement": "IC50", "setting": "[1]; cell line 786-0, read-out: cell panel IC50, 786-0", "result": 7.29, "unit": "µM"}, {"measurement": "IC50", "setting": "[1]; cell line ACHN, read-out: cell panel IC50, ACHN", "result": 1.82, "unit": "µM"}, {"measurement": "IC50", "setting": "[1]; cell line AN3 CA, read-out: cell panel IC50, AN3 CA", "result": 5.84, "unit": "µM"}, {"measurement": "IC50", "setting": "[1]; cell line BT-20, read-out: cell panel IC50, BT-20", "result": 3.93, "unit": "µM"}, {"measurement": "IC50", "setting": "[1]; cell line BxPC-3, read-out: cell panel IC50, BxPC-3", "result": 4, "unit": "µM"}, {"measurement": "IC50", "setting": "[1]; cell line C-33 A, read-out: cell panel IC50, C-33 A", "result": 1.02, "unit": "µM"}, {"measurement": "IC50", "setting": "[1]; cell line CAL 27, read-out: cell panel IC50, CAL 27", "result": 1.54, "unit": "µM"}, {"measurement": "IC50", "setting": "[1]; cell line CCRF-CEM, read-out: cell panel IC50, CCRF-CEM", "result": 9.54, "unit": "µM"}, {"measurement": "IC50", "setting": "[1]; cell line DLD-1, read-out: cell panel IC50, DLD-1", "result": 3.54, "unit": "µM"}, {"measurement": "IC50", "setting": "[1]; cell line FaDu, read-out: cell panel IC50, FaDu", "result": 1.62, "unit": "µM"}, {"measurement": "IC50", "setting": "[1]; cell line HCT-15, read-out: cell panel IC50, HCT-15", "result": 3.15, "unit": "µM"}, {"measurement": "IC50", "setting": "[1]; cell line Hs 578T, read-out: cell panel IC50, Hs 578T", "result": 22.6, "unit": "µM"}, {"measurement": "IC50", "setting": "[1]; cell line Jurkat E6.1, read-out: cell panel IC50, Jurkat E6.1", "result": 2.52, "unit": "µM"}, {"measurement": "IC50", "setting": "[1]; cell line LoVo, read-out: cell panel IC50, LoVo", "result": 2.7, "unit": "µM"}, {"measurement": "IC50", "setting": "[1]; cell line MG-63, read-out: cell panel IC50, MG-63", "result": 3.63, "unit": "µM"}, {"measurement": "IC50", "setting": "[1]; cell line MOLT-4, read-out: cell panel IC50, MOLT-4", "result": 3.31, "unit": "µM"}, {"measurement": "IC50", "setting": "[1]; cell line MeWo, read-out: cell panel IC50, MeWo", "result": 30.8, "unit": "µM"}, {"measurement": "IC50", "setting": "[1]; cell line NCI-H82, read-out: cell panel IC50, NCI-H82", "result": 3.58, "unit": "µM"}, {"measurement": "IC50", "setting": "[1]; cell line NCI-H460, read-out: cell panel IC50, NCI-H460", "result": 3.95, "unit": "µM"}, {"measurement": "IC50", "setting": "[1]; cell line OVCAR-3, read-out: cell panel IC50, OVCAR-3", "result": 3.63, "unit": "µM"}, {"measurement": "IC50", "setting": "[1]; cell line RPMI-7951, read-out: cell panel IC50, RPMI-7951", "result": 5.88, "unit": "µM"}, {"measurement": "IC50", "setting": "[1]; cell line SK-N-AS, read-out: cell panel IC50, SK-N-AS", "result": 6.43, "unit": "µM"}, {"measurement": "IC50", "setting": "[1]; cell line SW48, read-out: cell panel IC50, SW48", "result": 1.01, "unit": "µM"}, {"measurement": "IC50", "setting": "[1]; cell line SW480, read-out: cell panel IC50, SW480", "result": "> 31.6", "unit": "µM"}, {"measurement": "%-inhibition, ABL(E255K)", "setting": "[2]", "result": 33, "unit": "%"}, {"measurement": "%-inhibition of RAF1", "setting": "[3]", "result": 96, "unit": "%"}, {"measurement": "%-inhibition of KIT(T670I)", "setting": "[4]", "result": 101, "unit": "%"}, {"measurement": "%-inhibition of PKACγ", "setting": "[5]", "result": -0.823, "unit": "%"}, {"measurement": "%-inhibition of RON", "setting": "[6]", "result": 3.5, "unit": "%"}, {"measurement": "%-inhibition of MINK", "setting": "[7]", "result": 24, "unit": "%"}, {"measurement": "%-inhibition of NEK6", "setting": "[8]", "result": -6.48, "unit": "%"}, {"measurement": "%-inhibition of TAOK2", "setting": "[9]", "result": 75, "unit": "%"}]}
